Data as given in patent US20100099561A1, “HETEROBICYCLIC ALKYLTHIO-BRIDGED ISOXAZOLINES” (E.I. DU PONT DE NEMOURS AND COMPANY, priority 2008, published 2010).

Experiments:
Format in all cases: in vivo
rice (Oryza sativa) = assay: Test B flooded paddy test, rice; details: Flood, scale 0 to 100
Procedure, shortened: (§1)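 Rice, umbrella sedge, ducksalad and barnyardgrass at 2-leaf stage; pots flooded to 3 cm, compounds applied into paddy water, depth held throughout. Greenhouse 13 to 15 days, then visual rating vs untreated controls on 0–100 scale (0 no effect, 100 complete control); dash means no test result.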

[1] = tested on: pigweed (Amaranthus retroflexus); assay: Test B preemergence, pigweed; details: scale 0 to 100
Excerpt: (§2) Seeds of plant species selected from blackgrass (Alopecurus myosuroides), downy bromegrass (Bromus tectorum), green foxtail (Setaria viridis), Italian ryegrass (Lolium multiflorum), wheat (Triticum aestivum), wild oat (Avena fatua), catchweed bedstraw (Galium aparine), bermudagrass (Cynodon dactylon), Surinam grass (Brachiaria decumbens), cocklebur (Xanthium strumarium), corn (Zea mays), large crabgrass (Digitaria sanguinalis), woolly cupgrass (Eriochloa villosa), giant foxtail (Setaria faberii), goosegrass (Eleusine indica), johnsongrass (Sorghum halepense), kochia (Kochia scoparia), lambsquarters (Chenopodium album), morningglory (Ipomoea coccinea), nightshade (eastern black nightshade, Solanum ptycanthum), yellow nutsedge (Cyperus esculentus), pigweed (Amaranthus retroflexus), ragweed (common ragweed, Ambrosia elatior), soybean (Glycine max), sunflower (common oilseed sunflower, Helianthus annuus), Russian thistle (Salsola kali), and velvetleaf (Abutilon theophrasti) were planted into a blend of loam soil and sand and treated preemergence with test compounds formulated in a non-phytotoxic solvent mixture which included a surfactant. Treated plants and controls were maintained in a greenhouse for 13 to 15 days, after which time all species were compared to controls and visually evaluated. Plant response ratings, summarized in Table B, are based on a scale of 0 to 100 where 0 is no effect and 100 is complete control. A dash (-) response means no test result.

[2] = tested on: goosegrass (Eleusine indica); assay: Test B preemergence, goosegrass; details: scale 0 to 100
Excerpt: as §2

[3] = tested on: lambsquarters (Chenopodium album); assay: Test B preemergence, lambsquarters; details: scale 0 to 100
Excerpt: as §2

[4] = tested on: giant foxtail (Setaria faberii); assay: Test B preemergence, giant foxtail; details: scale 0 to 100
Excerpt: as §2

corn (Zea mays) = assay: Test A postemergence, corn; details: 0 to 100 scale (0 no effect, 100 complete control)
Procedure, shortened: (§3)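 Seeds sown in loam soil–sand blend; test chemicals in non-phytotoxic solvent mixture with surfactant applied preemergence as directed soil spray, or postemergence to plants 2–10 cm tall at one- to two-leaf stage. Greenhouse, ~10 days; visual injury rated against untreated controls, 0 (no effect) to 100 (complete control).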

[5] = tested on: catchweed bedstraw (Galium aparine); assay: Test B preemergence, catchweed bedstraw; details: scale 0 to 100
Excerpt: as §2

[6] = tested on: barnyardgrass (Echinochloa crus-galli); assay: Test B flooded paddy test, barnyardgrass; details: Flood
Procedure, shortened: as §1

[7] = tested on: pigweed (Amaranthus retroflexus); assay: Test A preemergence, pigweed; details: 0 to 100 scale (0 no effect, 100 complete control)
Procedure, shortened: as §3

[8] = tested on: blackgrass (Alopecurus myosuroides); assay: Test B preemergence, blackgrass; details: scale 0 to 100
Excerpt: as §2

[9] = tested on: wheat (Triticum aestivum); assay: Test B preemergence, wheat; details: Preemergence, scale 0 to 100
Excerpt: as §2

[10] = tested on: nightshade (eastern black nightshade, Solanum ptycanthum); assay: Test B preemergence, nightshade; details: scale 0 to 100
Excerpt: as §2

[11] = tested on: umbrella sedge (Cyperus difformis); assay: Test B flooded paddy test, umbrella sedge; details: Flood, scale 0 to 100
Procedure, shortened: as §1

[12] = tested on: sunflower (common oilseed sunflower, Helianthus annuus); assay: Test B preemergence, sunflower; details: Preemergence, scale 0 to 100
Excerpt: as §2

[13] = tested on: large crabgrass (Digitaria sanguinalis); assay: Test A postemergence, large crabgrass; details: 0 to 100 scale (0 no effect, 100 complete control)
Procedure, shortened: as §3

[14] = tested on: wheat (Triticum aestivum); assay: Test A postemergence, wheat; details: 0 to 100 scale (0 no effect, 100 complete control)
Procedure, shortened: as §3

[15] = tested on: wheat (Triticum aestivum); assay: Test A preemergence, wheat; details: 0 to 100 scale (0 no effect, 100 complete control)
Procedure, shortened: as §3

[16] = tested on: velvetleaf (Abutilon theophrasti); assay: Test A preemergence, velvetleaf; details: 0 to 100 scale (0 no effect, 100 complete control)
Procedure, shortened: as §3

[17] = tested on: cocklebur (Xanthium strumarium); assay: Test B preemergence, cocklebur; details: scale 0 to 100
Excerpt: as §2

CC1(C)CC(S(=O)(=O)Cc2c(C(F)(F)F)nc3n(c2=O)CCO3)=NO1 [Compound 2, 6-[[(4,5-dihydro-5,5-dimethyl-3-isoxazolyl)sulfonyl]methyl]-2,3-dihydro-7-(trifluoromethyl)-5H-oxazolo[3,2-α]pyrimidin-5-one]
Plant response rating, Rice (rice (Oryza sativa); 62 g ai/ha): 0 | Plant response rating, Rice (rice (Oryza sativa); 250 g ai/ha): 0 | Plant response rating, Pigweed ([1]; 8 g ai/ha): 0 | Plant response rating, Pigweed ([1]; 16 g ai/ha): 0 | Plant response rating, Pigweed ([1]; 31 g ai/ha): 0 | Plant response rating, Pigweed ([1]; 62 g ai/ha): 0 | Plant response rating, Goosegrass ([2]; 8 g ai/ha): 0 | Plant response rating, Goosegrass ([2]; 16 g ai/ha): 65 | Plant response rating, Goosegrass ([2]; 31 g ai/ha): 75 | Plant response rating, Goosegrass ([2]; 62 g ai/ha): 80 | Plant response rating, Lambsquarters ([3]; 8 g ai/ha): 0 | Plant response rating, Lambsquarters ([3]; 31 g ai/ha): 0 | Plant response rating, Lambsquarters ([3]; 62 g ai/ha): 0 | Plant response rating, Foxtail, Giant ([4]; 8 g ai/ha): 0 | Plant response rating, Foxtail, Giant ([4]; 16 g ai/ha): 50 | Plant response rating, Foxtail, Giant ([4]; 31 g ai/ha): 70 | Plant response rating, Foxtail, Giant ([4]; 62 g ai/ha): 98 | Plant response rating, Corn (corn (Zea mays); 125 g ai/ha): 0 | Plant response rating, Corn (corn (Zea mays); 500 g ai/ha): 50 | Plant response rating, Galium ([5]; 8 g ai/ha): 0 | Plant response rating, Galium ([5]; 16 g ai/ha): 100 | Plant response rating, Galium ([5]; 31 g ai/ha): 100 | Plant response rating, Galium ([5]; 62 g ai/ha): 100 | Plant response rating, Barnyardgrass ([6]; 62 g ai/ha, scale 0 to 100): 0 | Plant response rating, Barnyardgrass ([6]; 250 g ai/ha, scale 0 to 100 (0 no effect, 100 complete control)): 0 | Plant response rating, Pigweed ([7]; 125 g ai/ha): 20 | Plant response rating, Pigweed ([7]; 500 g ai/ha): 60 | Plant response rating, Blackgrass ([8]; 8 g ai/ha): 0 | Plant response rating, Blackgrass ([8]; 16 g ai/ha): 0 | Plant response rating, Blackgrass ([8]; 31 g ai/ha): 0 | Plant response rating, Blackgrass ([8]; 62 g ai/ha): 50 | Plant response rating, Wheat ([9]; 16 g ai/ha): 0 | Plant response rating, Wheat ([9]; 31 g ai/ha): 0 | Plant response rating, Wheat ([9]; 62 g ai/ha): 0 | Plant response rating, Nightshade ([10]; 8 g ai/ha): 0 | Plant response rating, Nightshade ([10]; 16 g ai/ha): 0 | Plant response rating, Nightshade ([10]; 31 g ai/ha): 0 | Plant response rating, Nightshade ([10]; 62 g ai/ha): 0 | Plant response rating, Sedge, Umbrella ([11]; 62 g ai/ha): 0 | Plant response rating, Sedge, Umbrella ([11]; 250 g ai/ha): 0 | Plant response rating, Sunflower ([12]; 16 g ai/ha): 0 | Plant response rating, Sunflower ([12]; 31 g ai/ha): 0 | Plant response rating, Sunflower ([12]; 62 g ai/ha): 0 | Plant response rating, Crabgrass, Large ([13]; 125 g ai/ha): 60 | Plant response rating, Crabgrass, Large ([13]; 500 g ai/ha): 90 | Plant response rating, Wheat ([14]; 125 g ai/ha): 0 | Plant response rating, Wheat ([14]; 500 g ai/ha): 60 | Plant response rating, Wheat ([15]; 125 g ai/ha): 10 | Plant response rating, Wheat ([15]; 500 g ai/ha): 60 | Plant response rating, Velvetleaf ([16]; 125 g ai/ha): 10 | Plant response rating, Velvetleaf ([16]; 500 g ai/ha): 90 | Plant response rating, Cocklebur ([17]; 8 g ai/ha): 0 | Plant response rating, Cocklebur ([17]; 16 g ai/ha): 0 | Plant response rating, Cocklebur ([17]; 31 g ai/ha): 0 | Plant response rating, Cocklebur ([17]; 62 g ai/ha): 0
